In ChEMBL document CHEMBL4610114, “Fragment-Based Discovery of Pyrazolopyridones as JAK1 Inhibitors with Excellent Subtype Selectivity” (J Med Chem, 2020):
Converted amounts (≈) assume the structure as drawn.

How the values were obtained:
physchem [1] = details: octanol/water
Description: Lipophilicity, logD of the compound by shake flask assay

[2] = biological target: T1, Tyrosine-protein kinase JAK2 (Homo sapiens, UniProt O60674)
Description: Inhibition of JAK2 in human STAT5-irf1-bla TF1 cells assessed as reduction in EPO-induced STAT5-signalling pre-incubated for 1 hrs before EPO addition and further incubated for 4 hrs fluorescence based assay

[3] = biological target: Non-receptor tyrosine-protein kinase TYK2 (Homo sapiens, UniProt P29597)
[4] = biological target: T1, Tyrosine-protein kinase JAK2; remark: listed apart in the source
in vitro [5] = details: human, liver microsomes
Description: Apparent intrinsic clearance in human liver microsomes

[6] = biological target: T2, Tyrosine-protein kinase JAK3 (Homo sapiens, UniProt P52333)
T2 sequence (P52333 whole entry): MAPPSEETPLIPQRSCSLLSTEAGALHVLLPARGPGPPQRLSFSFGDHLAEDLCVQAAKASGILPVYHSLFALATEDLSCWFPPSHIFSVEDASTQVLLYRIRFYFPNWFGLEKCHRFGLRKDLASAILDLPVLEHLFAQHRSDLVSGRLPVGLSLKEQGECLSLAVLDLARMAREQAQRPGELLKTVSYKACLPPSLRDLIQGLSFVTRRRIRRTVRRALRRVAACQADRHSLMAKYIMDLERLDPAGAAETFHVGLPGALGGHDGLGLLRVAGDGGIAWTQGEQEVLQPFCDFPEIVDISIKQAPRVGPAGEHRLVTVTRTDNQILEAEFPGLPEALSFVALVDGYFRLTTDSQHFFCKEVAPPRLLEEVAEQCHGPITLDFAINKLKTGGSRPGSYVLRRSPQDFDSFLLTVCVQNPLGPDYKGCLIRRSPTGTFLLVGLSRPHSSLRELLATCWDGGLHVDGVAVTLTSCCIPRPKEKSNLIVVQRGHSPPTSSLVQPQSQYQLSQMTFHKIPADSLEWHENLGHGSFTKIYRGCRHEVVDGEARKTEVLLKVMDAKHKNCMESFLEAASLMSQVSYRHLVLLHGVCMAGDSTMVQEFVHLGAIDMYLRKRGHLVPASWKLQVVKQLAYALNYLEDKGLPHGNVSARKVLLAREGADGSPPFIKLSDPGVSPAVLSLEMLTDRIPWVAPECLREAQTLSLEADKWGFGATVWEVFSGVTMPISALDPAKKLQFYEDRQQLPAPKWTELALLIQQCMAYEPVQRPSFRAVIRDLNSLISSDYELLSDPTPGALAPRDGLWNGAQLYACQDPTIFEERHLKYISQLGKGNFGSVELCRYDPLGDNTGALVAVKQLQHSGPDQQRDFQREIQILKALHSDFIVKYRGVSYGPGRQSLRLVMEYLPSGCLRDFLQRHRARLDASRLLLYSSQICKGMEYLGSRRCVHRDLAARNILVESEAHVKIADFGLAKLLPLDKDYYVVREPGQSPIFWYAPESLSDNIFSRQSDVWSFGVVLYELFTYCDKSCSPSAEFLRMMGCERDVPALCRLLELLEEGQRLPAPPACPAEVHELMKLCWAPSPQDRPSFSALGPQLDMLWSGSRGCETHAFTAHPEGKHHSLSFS

physchem [7] = details: PBS buffer, pH 7.4
Description: Aqueous solubility in PBS buffer at pH 7.4 by HPLC analysis

[8] = biological target: T3, Tyrosine-protein kinase JAK1 (Homo sapiens, UniProt P23458)
T3 sequence (P23458 whole entry): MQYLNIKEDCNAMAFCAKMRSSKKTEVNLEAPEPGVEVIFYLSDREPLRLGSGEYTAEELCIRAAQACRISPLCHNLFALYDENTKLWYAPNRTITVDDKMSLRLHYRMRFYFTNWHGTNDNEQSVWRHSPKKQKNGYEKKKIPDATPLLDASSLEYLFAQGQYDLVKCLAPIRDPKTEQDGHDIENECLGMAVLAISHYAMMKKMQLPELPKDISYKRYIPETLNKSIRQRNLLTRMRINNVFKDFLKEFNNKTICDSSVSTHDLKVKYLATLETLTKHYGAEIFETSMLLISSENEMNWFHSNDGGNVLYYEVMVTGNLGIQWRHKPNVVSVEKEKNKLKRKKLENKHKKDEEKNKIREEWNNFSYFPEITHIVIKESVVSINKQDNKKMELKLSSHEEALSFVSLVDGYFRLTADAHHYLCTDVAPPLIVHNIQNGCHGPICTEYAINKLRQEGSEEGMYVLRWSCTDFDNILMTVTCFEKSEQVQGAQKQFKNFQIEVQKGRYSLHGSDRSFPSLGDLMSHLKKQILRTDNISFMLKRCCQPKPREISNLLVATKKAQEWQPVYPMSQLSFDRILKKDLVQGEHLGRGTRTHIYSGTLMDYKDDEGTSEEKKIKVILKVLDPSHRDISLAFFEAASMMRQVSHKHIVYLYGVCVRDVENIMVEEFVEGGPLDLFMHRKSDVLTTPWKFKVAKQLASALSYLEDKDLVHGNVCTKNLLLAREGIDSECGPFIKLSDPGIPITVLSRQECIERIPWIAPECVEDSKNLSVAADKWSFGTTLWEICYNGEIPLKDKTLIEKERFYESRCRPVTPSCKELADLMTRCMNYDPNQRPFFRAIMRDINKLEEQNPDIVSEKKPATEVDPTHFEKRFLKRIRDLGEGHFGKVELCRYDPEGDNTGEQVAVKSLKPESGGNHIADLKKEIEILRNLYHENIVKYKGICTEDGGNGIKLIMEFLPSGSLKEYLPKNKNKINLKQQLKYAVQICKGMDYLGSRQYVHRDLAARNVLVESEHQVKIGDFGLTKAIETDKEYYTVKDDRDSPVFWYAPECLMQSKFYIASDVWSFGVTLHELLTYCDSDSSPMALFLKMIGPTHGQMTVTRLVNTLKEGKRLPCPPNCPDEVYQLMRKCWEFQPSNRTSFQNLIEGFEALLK
Description: Inhibition of JAK1 in human STAT6-bla-RA1 cells assessed as reduction in IL4-induced STAT6-signalling pre-incubated for 1 hrs before human recombinant IL4 addition and further incubated for 4 hrs fluorescence based assay

[9] = biological target: T3, Tyrosine-protein kinase JAK1; remark: listed apart in the source
[10] = Oral bioavailability in rat at […]; assay type: ADME, organism-based; details: in vivo
Cytochrome P450 2C19 = Cytochrome P450 2C19 (Homo sapiens, UniProt P33261); test: Inhibition of CYP2C19 (unknown origin) up to 25 uM; assay type: ADME
Chain of Cytochrome P450 2C19 (P33261 whole entry): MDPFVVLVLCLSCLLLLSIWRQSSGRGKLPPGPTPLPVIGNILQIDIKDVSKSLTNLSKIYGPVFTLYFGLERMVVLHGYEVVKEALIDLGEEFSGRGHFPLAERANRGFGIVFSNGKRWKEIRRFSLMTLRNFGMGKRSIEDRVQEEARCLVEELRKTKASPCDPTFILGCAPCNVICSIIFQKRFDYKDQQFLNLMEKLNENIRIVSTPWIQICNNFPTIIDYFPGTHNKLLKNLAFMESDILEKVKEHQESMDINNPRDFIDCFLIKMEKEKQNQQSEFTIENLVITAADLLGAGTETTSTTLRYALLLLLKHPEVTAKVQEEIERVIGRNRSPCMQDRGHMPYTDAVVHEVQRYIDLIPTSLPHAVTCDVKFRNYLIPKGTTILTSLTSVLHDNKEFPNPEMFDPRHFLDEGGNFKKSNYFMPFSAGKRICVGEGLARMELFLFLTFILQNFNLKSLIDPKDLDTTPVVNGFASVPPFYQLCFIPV

in vitro [11] = details: rat, hepatocytes
Description: Apparent intrinsic clearance in rat hepatocytes

in vitro [12] = details: rat, liver microsomes
Description: Apparent intrinsic clearance in rat liver microsomes

Cytochrome P450 2D6 = Cytochrome P450 2D6 (Homo sapiens, UniProt P10635); test: Inhibition of CYP2D6 (unknown origin) up to 25 uM; assay type: ADME
[13] = Clearance in rat at […], po or 0.06 mg/kg, iv; assay type: ADME, organism-based; details: in vivo
Cytochrome P450 1A2 = biological target: T4, Cytochrome P450 1A2 (Homo sapiens, UniProt P05177); test: Inhibition of CYP1A2 (unknown origin) up to 25 uM; assay type: ADME
T4 sequence (P05177 whole entry): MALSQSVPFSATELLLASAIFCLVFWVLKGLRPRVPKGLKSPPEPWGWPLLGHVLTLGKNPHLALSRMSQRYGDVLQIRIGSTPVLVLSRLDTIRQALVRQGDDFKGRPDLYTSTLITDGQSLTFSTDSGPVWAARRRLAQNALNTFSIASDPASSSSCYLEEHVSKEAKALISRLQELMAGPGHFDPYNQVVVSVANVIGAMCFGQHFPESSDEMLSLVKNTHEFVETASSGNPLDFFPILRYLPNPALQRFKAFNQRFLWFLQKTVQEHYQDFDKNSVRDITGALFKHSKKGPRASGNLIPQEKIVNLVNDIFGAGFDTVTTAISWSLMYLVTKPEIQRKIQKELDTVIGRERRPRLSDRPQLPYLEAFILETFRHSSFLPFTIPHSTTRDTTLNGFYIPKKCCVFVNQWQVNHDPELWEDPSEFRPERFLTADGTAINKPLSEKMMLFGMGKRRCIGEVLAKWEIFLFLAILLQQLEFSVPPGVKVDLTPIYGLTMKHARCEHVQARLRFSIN

[14] = biological target: Voltage-gated inwardly rectifying potassium channel KCNH2 (Homo sapiens, UniProt Q12809); test: Binding affinity to human ERG at 30 uM
[15] = Terminal Phase volume of distribution […] in rat at […], po or 0.06 mg/kg, iv; assay type: ADME, organism-based; details: in vivo, read-out: Vbeta
[16] = Apparent permeability in human Caco2 cells; assay type: ADME, cell-based; details: Caco-2
[17] = Drug absorption in rat at […], po; assay type: ADME, organism-based; details: in vivo, read-out: Fabs
Cytochrome P450 2C9 = Cytochrome P450 2C9 (Homo sapiens, UniProt P11712); test: Inhibition of CYP2C9 (unknown origin) up to 25 uM; assay type: ADME
Cytochrome P450 3A4 = Cytochrome P450 3A4 (Homo sapiens, UniProt P08684); test: Inhibition of CYP3A4 (unknown origin) up to 25 uM; assay type: ADME
[18] = Protein binding in rat plasma assessed as unbound fraction; assay type: ADME, cell-free
[19] = Half life in rat at […], po or 0.06 mg/kg, iv; assay type: ADME, organism-based; details: in vivo
[20] = biological target: Fibroblast growth factor receptor 1 (Homo sapiens) (UniProt P11362); test: Inhibition of human FGFR1 cytoplasmic domain (398 to 822(end) residues) at 1 mM ATP relative to control
Chain of Fibroblast growth factor receptor 1 (Homo sapiens) (P11362 22-822 limits assumed): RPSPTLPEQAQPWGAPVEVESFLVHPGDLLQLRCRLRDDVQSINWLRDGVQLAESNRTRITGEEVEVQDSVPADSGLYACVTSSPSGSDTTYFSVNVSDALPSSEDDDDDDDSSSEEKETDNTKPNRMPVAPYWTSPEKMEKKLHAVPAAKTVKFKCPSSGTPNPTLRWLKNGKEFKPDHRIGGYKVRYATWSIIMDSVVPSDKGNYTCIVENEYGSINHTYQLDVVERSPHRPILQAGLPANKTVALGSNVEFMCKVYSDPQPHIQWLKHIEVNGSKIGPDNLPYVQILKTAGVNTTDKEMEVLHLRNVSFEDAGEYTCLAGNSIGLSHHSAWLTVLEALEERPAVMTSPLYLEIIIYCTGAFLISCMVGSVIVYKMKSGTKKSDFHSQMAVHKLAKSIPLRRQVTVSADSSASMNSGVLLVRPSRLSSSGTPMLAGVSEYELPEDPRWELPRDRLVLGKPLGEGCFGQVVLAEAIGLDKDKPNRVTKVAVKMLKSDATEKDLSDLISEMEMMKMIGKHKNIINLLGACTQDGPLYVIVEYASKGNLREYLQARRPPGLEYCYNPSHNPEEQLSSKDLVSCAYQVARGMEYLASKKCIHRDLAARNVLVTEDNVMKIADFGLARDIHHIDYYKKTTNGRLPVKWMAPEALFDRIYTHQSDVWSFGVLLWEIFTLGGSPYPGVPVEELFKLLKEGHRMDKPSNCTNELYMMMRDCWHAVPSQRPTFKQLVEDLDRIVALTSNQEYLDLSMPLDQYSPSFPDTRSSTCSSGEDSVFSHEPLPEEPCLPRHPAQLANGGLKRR

T1 sequence (O60674 whole entry): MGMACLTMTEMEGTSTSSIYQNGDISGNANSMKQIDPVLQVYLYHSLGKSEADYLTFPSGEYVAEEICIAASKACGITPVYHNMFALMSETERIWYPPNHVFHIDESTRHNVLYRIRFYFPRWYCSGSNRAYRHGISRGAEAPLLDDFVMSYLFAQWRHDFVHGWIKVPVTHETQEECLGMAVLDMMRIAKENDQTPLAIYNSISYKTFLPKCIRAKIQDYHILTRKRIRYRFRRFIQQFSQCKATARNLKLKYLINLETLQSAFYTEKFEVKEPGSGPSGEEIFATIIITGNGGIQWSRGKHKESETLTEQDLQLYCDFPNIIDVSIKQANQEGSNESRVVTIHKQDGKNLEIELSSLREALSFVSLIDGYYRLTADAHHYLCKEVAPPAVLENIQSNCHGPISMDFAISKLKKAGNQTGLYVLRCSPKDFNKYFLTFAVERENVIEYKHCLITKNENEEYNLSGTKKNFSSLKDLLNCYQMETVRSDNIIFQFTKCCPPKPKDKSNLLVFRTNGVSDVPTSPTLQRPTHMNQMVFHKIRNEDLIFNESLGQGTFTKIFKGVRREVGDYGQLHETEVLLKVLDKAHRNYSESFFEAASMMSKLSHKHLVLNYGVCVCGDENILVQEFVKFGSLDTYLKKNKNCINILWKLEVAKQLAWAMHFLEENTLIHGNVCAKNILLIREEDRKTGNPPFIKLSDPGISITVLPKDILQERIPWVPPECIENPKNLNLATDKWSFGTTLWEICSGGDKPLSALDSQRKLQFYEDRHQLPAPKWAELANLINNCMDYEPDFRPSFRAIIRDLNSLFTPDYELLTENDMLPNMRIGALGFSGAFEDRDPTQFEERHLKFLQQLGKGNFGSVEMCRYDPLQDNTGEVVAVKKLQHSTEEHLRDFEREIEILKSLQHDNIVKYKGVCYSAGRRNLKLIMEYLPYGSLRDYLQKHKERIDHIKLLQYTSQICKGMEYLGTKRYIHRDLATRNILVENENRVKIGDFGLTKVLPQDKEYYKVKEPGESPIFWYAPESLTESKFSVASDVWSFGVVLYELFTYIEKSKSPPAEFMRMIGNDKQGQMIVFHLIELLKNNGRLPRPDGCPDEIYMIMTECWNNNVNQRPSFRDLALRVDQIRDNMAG
Chain of Non-receptor tyrosine-protein kinase TYK2 (P29597 whole entry): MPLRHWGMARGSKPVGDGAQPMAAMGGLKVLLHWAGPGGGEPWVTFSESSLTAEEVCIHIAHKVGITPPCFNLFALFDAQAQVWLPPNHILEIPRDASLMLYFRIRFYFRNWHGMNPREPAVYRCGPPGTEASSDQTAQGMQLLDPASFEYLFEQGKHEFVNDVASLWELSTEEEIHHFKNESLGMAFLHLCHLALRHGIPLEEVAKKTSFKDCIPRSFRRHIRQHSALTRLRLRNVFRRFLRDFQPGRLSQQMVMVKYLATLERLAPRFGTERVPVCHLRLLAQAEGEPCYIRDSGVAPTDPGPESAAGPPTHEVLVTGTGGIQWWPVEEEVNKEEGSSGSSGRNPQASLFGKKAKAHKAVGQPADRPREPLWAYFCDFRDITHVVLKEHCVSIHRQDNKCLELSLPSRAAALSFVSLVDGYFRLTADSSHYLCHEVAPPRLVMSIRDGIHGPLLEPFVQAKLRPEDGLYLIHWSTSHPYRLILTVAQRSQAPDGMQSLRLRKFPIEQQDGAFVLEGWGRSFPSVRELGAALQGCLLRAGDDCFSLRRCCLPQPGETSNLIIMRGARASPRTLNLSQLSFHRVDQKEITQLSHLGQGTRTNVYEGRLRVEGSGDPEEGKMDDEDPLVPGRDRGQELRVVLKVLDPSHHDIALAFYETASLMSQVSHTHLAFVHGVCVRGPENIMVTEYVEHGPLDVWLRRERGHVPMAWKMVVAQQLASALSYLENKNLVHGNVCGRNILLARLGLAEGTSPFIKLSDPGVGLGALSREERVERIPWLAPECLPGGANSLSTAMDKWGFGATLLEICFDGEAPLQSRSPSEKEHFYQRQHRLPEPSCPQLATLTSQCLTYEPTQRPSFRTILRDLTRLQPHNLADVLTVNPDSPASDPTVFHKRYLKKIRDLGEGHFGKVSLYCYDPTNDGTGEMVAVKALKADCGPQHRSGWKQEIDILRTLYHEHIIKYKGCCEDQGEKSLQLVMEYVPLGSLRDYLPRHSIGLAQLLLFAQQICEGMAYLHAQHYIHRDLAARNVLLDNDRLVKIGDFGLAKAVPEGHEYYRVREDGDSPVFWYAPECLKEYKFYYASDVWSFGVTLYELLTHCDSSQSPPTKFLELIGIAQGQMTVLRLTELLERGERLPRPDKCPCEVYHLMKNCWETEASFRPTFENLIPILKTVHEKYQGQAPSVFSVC

Compound | logD (physchem [1]) | IC50 [2] [nM] | IC50 [3] [nM] | IC50 [4] [nM] | CLint scaled (in vitro [5]) [mL/min/kg] | IC50 [6] [nM] | solubility (physchem [7]) [µM] | IC50 [8] [nM] | IC50 [9] [nM] | further results
Cc1[nH]nc2[nH]c(=O)cc([C@H]3C[C@H]4C[C@@H]3C[C@H]4CC#N)c12 | 1.6 | > 43000 | 330 | 360 | < 8 | 970 | 290 (≈ 81.9 µg/mL) |  |  | 
Cc1[nH]nc2[nH]c(=O)cc([C@H]3CC[C@H](CC(=O)N4CCC(c5ccccc5)C4)CC3)c12 (mixture of isomers) | 3 | 2400 |  | 19 | 75 | 63 |  | 110 | 2.1 | 
Cc1[nH]nc2[nH]c(=O)cc([C@@H]3C[C@@H]4C[C@H]3C[C@@H]4CC#N)c12 | 1.5 | 24000 | 220 | 150 | < 8 | 220 | > 92 |  |  | 
Cc1[nH]nc2[nH]c(=O)cc([C@H]3CC[C@H](CC(=O)N4CC(C#N)C4)CC3)c12 | 0.5 | > 30000 |  | 64 | < 8 | 97 | 540 (≈ 191 µg/mL) | > 30000 | 13 | 
Cc1[nH]nc2[nH]c(=O)cc([C@H]3CC[C@H](CC(=O)N4CC(Cc5ccccc5)C4)CC3)c12 | 3 |  |  |  | 87 | 88 | 2.4 (≈ 1 µg/mL) | 250 | 3 | 
Cc1[nH]nc2[nH]c(=O)cc([C@H]3CC[C@H](CC(=O)N4CCC(C#N)C4)CC3)c12 (mixture of isomers) | 0.7 | > 45000 |  | 89 | < 8 | 150 | 85 (≈ 31.2 µg/mL) | 14000 | 11 | 
Cc1[nH]nc2[nH]c(=O)cc([C@H]3CC[C@H](CC(=O)N4CCC(C)(C)CC4)CC3)c12 | 2.9 | 3400 |  | 32 | 70 | 57 |  | 110 | 3.4 | 
Cc1[nH]nc2[nH]c(=O)c(CCO)c(C3CCCCC3)c12 | 2.6 | > 40000 | 3400 | 3900 |  | 990 | 11 (≈ 3.03 µg/mL) | 8500 | 490 | 
Cc1[nH]nc2[nH]c(=O)cc([C@H]3CC[C@H](CC#N)CC3)c12 | 1.5 | > 40000 | 130 | 360 |  | 270 | 59 (≈ 15.9 µg/mL) | 1200 | 40 | 
Cc1[nH]nc2[nH]c(=O)cc(C3CC4CCC3CC4)c12 (racemic) | 3.3 | 9100 | 220 | 330 |  | 65 | 8 (≈ 2.06 µg/mL) | 890 | 54 | 
Cc1[nH]nc2[nH]c(=O)cc([C@H]3CC[C@H](NC(=O)C4CC4)CC3)c12 | 1.2 | > 14000 | 2800 | 2100 |  | 7000 | 22 (≈ 6.92 µg/mL) | > 14000 | 220 | 
Cc1[nH]nc2[nH]c(=O)cc([C@H]3C[C@H]4C[C@@H]3C[C@@H]4CC#N)c12 | 1.5 | 2800 | 20 | 12 | < 8 | 88 | 89 (≈ 25.1 µg/mL) |  |  | bioavailability [10]: 14%; inhibition (INH) (Cytochrome P450 2C19): Not Active; CLint scaled (in vitro [11]): 25 mL/min/kg; CLint scaled (in vitro [12]): < 15 mL/min/kg; inhibition (INH) (Cytochrome P450 2D6): Not Active; clearance [13]: 53 mL/min/kg; inhibition (INH) (Cytochrome P450 1A2): Not Active; Activity [14]: Not Active; Vd [15]: 1.2 L/kg; Papp [16]: 0.7 ×10⁻⁶ cm/s; Fa [17]: 41%; inhibition (INH) (Cytochrome P450 2C9): Not Active; inhibition (INH) (Cytochrome P450 3A4): Not Active; fraction unbound [18]: 0.22; half-life [19]: 18 min; inhibition [20]: 32%
